From publication PMC5218480 (PLoS ONE, 2017) come the findings set out here.

This experiment deals with MV-4-11 cells. Description: Gene expression microarray analysis (Affymetrix PrimeView) and GSEA. Conditions: ProbeSet 11726703_a_at; LIST B. Also on record: RFU PODN (11730768_x_at) / Fold change /veh PODN (11730768_x_at) / RFU LINC00158 (11744669_a_at) / Fold change /veh LINC00158 (11744669_a_at) / RFU DUSP10 (11751237_a_at) / Fold change /veh DUSP10 (11751237_a_at) / RFU ID3 (11757404_x_at) / Fold change /veh ID3 (11757404_x_at) / RFU PLEKHG5 (11737974_s_at) / Fold change /veh PLEKHG5 (11737974_s_at) / RFU LRRC4B (11730491_at) / Fold change /veh LRRC4B (11730491_at) / RFU GIMAP4 (11747438_a_at) / Fold change /veh GIMAP4 (11747438_a_at) / RFU KRT8 (11758183_x_at) / Fold change /veh KRT8 (11758183_x_at) / RFU CNN1 (11734310_a_at) / Fold change /veh CNN1 (11734310_a_at) / RFU VPS37D (11726825_at) / Fold change /veh VPS37D (11726825_at) / RFU C10orf10 (11716522_x_at) / Fold change /veh C10orf10 (11716522_x_at) / RFU KIR2DL2 /// KIR2DL4 /// KIR2DL5A /// KIR2DL5B /// KIR2DS1 /// KIR2DS2 /// KIR2DS3 /// KIR2DS4 /// KIR3DL3 /// KIR3DL3 /// KIR3DS1 (11738374_at) / Fold change /veh KIR2DL2 /// KIR2DL4 /// KIR2DL5A /// KIR2DL5B /// KIR2DS1 /// KIR2DS2 /// KIR2DS3 /// KIR2DS4 /// KIR3DL3 /// KIR3DL3 /// KIR3DS1 (11738374_at) / RFU C1QL1 (11718748_at) / Fold change /veh C1QL1 (11718748_at) / RFU TMPRSS4 (11747572_a_at) / Fold change /veh TMPRSS4 (11747572_a_at) / RFU HAMP (11756126_x_at) / Fold change /veh HAMP (11756126_x_at) / RFU RNFT2 (11725882_a_at) / Fold change /veh RNFT2 (11725882_a_at) / RFU NR4A2 (11747474_a_at) / Fold change /veh NR4A2 (11747474_a_at) / RFU ABCC12 (11746883_a_at) / Fold change /veh ABCC12 (11746883_a_at) / RFU TMEM136 (11760407_x_at) / Fold change /veh TMEM136 (11760407_x_at) / RFU CLDN22 /// WWC2 (11732394_at) / Fold change /veh CLDN22 /// WWC2 (11732394_at) / RFU HLA-DPB1 (11760878_x_at) / Fold change /veh HLA-DPB1 (11760878_x_at) / RFU SPINT1 (11716480_a_at) / Fold change /veh SPINT1 (11716480_a_at) / RFU GAP43 (11754022_s_at) / Fold change /veh GAP43 (11754022_s_at) / RFU A4GNT (11735810_at) / Fold change /veh A4GNT (11735810_at) / RFU PRB3 (11715151_x_at) / Fold change /veh PRB3 (11715151_x_at) / RFU TUBB4B (11761932_at) / Fold change /veh TUBB4B (11761932_at) / RFU CAPN14 (11732068_a_at) / Fold change /veh CAPN14 (11732068_a_at) / RFU TMCC2 (11721928_a_at) / Fold change /veh TMCC2 (11721928_a_at) / RFU IRGQ (11745062_a_at) / Fold change /veh IRGQ (11745062_a_at) / RFU FAM174B (11720279_a_at) / Fold change /veh FAM174B (11720279_a_at) / RFU TMPRSS4 (11748680_a_at) / Fold change /veh TMPRSS4 (11748680_a_at) / RFU FAM212B (11763350_a_at) / Fold change /veh FAM212B (11763350_a_at) / RFU PLEKHG5 (11743358_a_at) / Fold change /veh PLEKHG5 (11743358_a_at) / RFU ZSCAN30 (11745921_a_at) / Fold change /veh ZSCAN30 (11745921_a_at) / RFU CMKLR1 (11741424_a_at) / Fold change /veh CMKLR1 (11741424_a_at) / RFU LOC101060620 /// MAPK8IP1 (11723275_at) / Fold change /veh LOC101060620 /// MAPK8IP1 (11723275_at) / RFU SPTSSB (11747773_x_at) / Fold change /veh SPTSSB (11747773_x_at) / RFU PRSS12 (11739890_at) / Fold change /veh PRSS12 (11739890_at) / RFU BIN1 (11741810_x_at) / Fold change /veh BIN1 (11741810_x_at) / RFU WNT11 (11732464_a_at) / Fold change /veh WNT11 (11732464_a_at) / RFU C10orf10 (11716521_a_at) / Fold change /veh C10orf10 (11716521_a_at) / RFU C5orf56 (11738089_at) / Fold change /veh C5orf56 (11738089_at) / RFU CYB561 (11721691_x_at) / Fold change /veh CYB561 (11721691_x_at) / RFU ANKRD19P (11752326_a_at) / Fold change /veh ANKRD19P (11752326_a_at) / RFU OR2T12 /// OR2T33 /// OR2T8 (11738714_s_at) / Fold change /veh OR2T12 /// OR2T33 /// OR2T8 (11738714_s_at) / RFU VCAN (11748164_a_at) / Fold change /veh VCAN (11748164_a_at) / RFU JSRP1 (11732532_at) / Fold change /veh JSRP1 (11732532_at) / RFU KRTAP10-11 (11738290_x_at) / Fold change /veh KRTAP10-11 (11738290_x_at) / RFU MYO3A (11730013_a_at) / Fold change /veh MYO3A (11730013_a_at) / RFU EBF3 (11725865_a_at) / Fold change /veh EBF3 (11725865_a_at) / RFU CAMK2N1 (11719241_x_at) / Fold change /veh CAMK2N1 (11719241_x_at) / RFU C5orf56 (11738088_a_at) / Fold change /veh C5orf56 (11738088_a_at) / RFU OLFML3 (11715873_a_at) / Fold change /veh OLFML3 (11715873_a_at) / RFU LOC100653217 /// NTM (11731650_a_at) / Fold change /veh LOC100653217 /// NTM (11731650_a_at) / RFU MAPK11 (11762145_a_at) / Fold change /veh MAPK11 (11762145_a_at) / RFU FIZ1 (11724087_x_at) / Fold change /veh FIZ1 (11724087_x_at) / RFU OASL (11726364_x_at) / Fold change /veh OASL (11726364_x_at) / RFU SOX15 (11748057_x_at) / Fold change /veh SOX15 (11748057_x_at) / RFU CD79A (11719716_a_at) / Fold change /veh CD79A (11719716_a_at) / RFU HIST1H1D (11736915_at) / Fold change /veh HIST1H1D (11736915_at) / RFU CASKIN2 (11723855_a_at) / Fold change /veh CASKIN2 (11723855_a_at) / RFU LOC730098 (11760151_x_at) / Fold change /veh LOC730098 (11760151_x_at) / RFU OR4N2 (11742367_at) / Fold change /veh OR4N2 (11742367_at) / RFU PRRT2 (11749266_a_at) / Fold change /veh PRRT2 (11749266_a_at) / RFU SNX32 (11753110_a_at) / Fold change /veh SNX32 (11753110_a_at) / RFU CDHR5 (11726645_a_at) / Fold change /veh CDHR5 (11726645_a_at) / RFU RCAN1 (11760418_a_at) / Fold change /veh RCAN1 (11760418_a_at) / RFU FAM167A (11723789_a_at) / Fold change /veh FAM167A (11723789_a_at) / RFU FAM26E (11764081_at) / Fold change /veh FAM26E (11764081_at) / RFU ISYNA1 (11749810_s_at) / Fold change /veh ISYNA1 (11749810_s_at) / RFU ACY1 (11761880_at) / Fold change /veh ACY1 (11761880_at) / RFU 11764098_at / Fold change /veh 11764098_at / RFU SAMD14 (11745864_x_at) / Fold change /veh SAMD14 (11745864_x_at) / RFU NPB (11741838_a_at) / Fold change /veh NPB (11741838_a_at) / RFU TMPRSS6 (11731388_a_at) / Fold change /veh TMPRSS6 (11731388_a_at) / RFU KRTAP10-2 (11738614_at) / Fold change /veh KRTAP10-2 (11738614_at) / RFU ARHGAP8 /// PRR5-ARHGAP8 (11727945_x_at) / Fold change /veh ARHGAP8 /// PRR5-ARHGAP8 (11727945_x_at) / RFU KRTAP5-7 /// NADSYN1 (11734609_at) / Fold change /veh KRTAP5-7 /// NADSYN1 (11734609_at) / RFU RASL12 (11751679_a_at) / Fold change /veh RASL12 (11751679_a_at) / RFU CDKN2B (11736163_a_at) / Fold change /veh CDKN2B (11736163_a_at) / RFU PRF1 (11729649_at) / Fold change /veh PRF1 (11729649_at) / RFU, ZNF638 /// ZNF638-IT1 / Fold change vs veh, ZNF638 /// ZNF638-IT1 / RFU, PANK3 / Fold change vs veh, PANK3 / RFU, SH3YL1 / Fold change vs veh, SH3YL1 / RFU, ZEB2 / Fold change vs veh, ZEB2 / RFU, NRIP1 / Fold change vs veh, NRIP1 / RFU, PTTG1IP / Fold change vs veh, PTTG1IP / RFU, CAPN2 / Fold change vs veh, CAPN2 / RFU, MED14 / Fold change vs veh, MED14 / RFU, SNORA58 / Fold change vs veh, SNORA58 / RFU, C1orf63 / Fold change vs veh, C1orf63 / RFU, LRRFIP1 / Fold change vs veh, LRRFIP1 / RFU, NDUFAF7 / Fold change vs veh, NDUFAF7 / RFU, SLC12A2 / Fold change vs veh, SLC12A2 / RFU, IBTK / Fold change vs veh, IBTK / RFU, ESF1 / Fold change vs veh, ESF1 / Fold change vs veh, TMEM50B / RFU, TAOK1 / Fold change vs veh, TAOK1 / RFU, ACBD3 / Fold change vs veh, ACBD3 / RFU, TMA16 / Fold change vs veh, TMA16 / RFU, RWDD3 / Fold change vs veh, RWDD3 / RFU, BCAT1 / Fold change vs veh, BCAT1 / RFU, EDEM3 / Fold change vs veh, EDEM3 / RFU, TMEM33 / Fold change vs veh, TMEM33 / RFU, WDR75 / Fold change vs veh, WDR75 / RFU, AHCTF1 / Fold change vs veh, AHCTF1 / RFU, TFRC / Fold change vs veh, TFRC / RFU, ZDHHC17 / Fold change vs veh, ZDHHC17 / RFU, NOM1 / Fold change vs veh, NOM1 / RFU, ARL8B / Fold change vs veh, ARL8B / RFU, ZBTB11 / Fold change vs veh, ZBTB11 / RFU, TAMM41 / Fold change vs veh, TAMM41 / RFU, KIAA1704 /// LOC100996395 / Fold change vs veh, KIAA1704 /// LOC100996395 / RFU, ING1 / Fold change vs veh, ING1 / RFU, TRMT61B / Fold change vs veh, TRMT61B / RFU, FUBP3 / Fold change vs veh, FUBP3 / RFU, TP53 / Fold change vs veh, TP53 / RFU, TNKS2 / Fold change vs veh, TNKS2 / RFU, ZFP14 / Fold change vs veh, ZFP14 / RFU, ACTR2 / Fold change vs veh, ACTR2 / RFU, PPP3R1 / Fold change vs veh, PPP3R1 / RFU, PIK3R1 / Fold change vs veh, PIK3R1 / RFU, HNRNPA1 / Fold change vs veh, HNRNPA1 / RFU, RNF170 / Fold change vs veh, RNF170 / RFU, ZNF28 / Fold change vs veh, ZNF28 / RFU, RNGTT / Fold change vs veh, RNGTT / RFU, OGT / Fold change vs veh, OGT / RFU, BRD1 / Fold change vs veh, BRD1 / RFU, MARS / Fold change vs veh, MARS / RFU, ZNF655 / Fold change vs veh, ZNF655 / RFU, FAHD1 / Fold change vs veh, FAHD1 / RFU, BDP1 / Fold change vs veh, BDP1 / RFU, LRRCC1 / Fold change vs veh, LRRCC1 / RFU, ARID1A / Fold change vs veh, ARID1A / RFU, ZNF146 / Fold change vs veh, ZNF146 / RFU, ZNF330 / Fold change vs veh, ZNF330 / RFU, GPN3 / Fold change vs veh, GPN3 / RFU, C9orf123 / Fold change vs veh, C9orf123 / RFU, N4BP2L2 / Fold change vs veh, N4BP2L2 / RFU, ARFIP1 / Fold change vs veh, ARFIP1 / RFU, FAM179B / Fold change vs veh, FAM179B / RFU, BCL10 / Fold change vs veh, BCL10 / RFU, UHRF1BP1L / Fold change vs veh, UHRF1BP1L / RFU, BET1 / Fold change vs veh, BET1 / RFU, CNOT2 / Fold change vs veh, CNOT2 / RFU, ZNF268 / Fold change vs veh, ZNF268 / Fold change vs veh, ZNF507 / RFU, DGCR2 / Fold change vs veh, DGCR2 / RFU, WDSUB1 / Fold change vs veh, WDSUB1 / Fold change vs veh, HSP90B1 /// MIR3652 / RFU, ADSS / Fold change vs veh, ADSS / RFU, GK / Fold change vs veh, GK / RFU, ZNF148 / Fold change vs veh, ZNF148 / RFU, TAF9 / Fold change vs veh, TAF9 / RFU, SLC1A5 / Fold change vs veh, SLC1A5 / RFU, SLMO2 / Fold change vs veh, SLMO2 / RFU, ABCC4 / Fold change vs veh, ABCC4 / RFU, LOC101060439 /// RAP1B / Fold change vs veh, LOC101060439 /// RAP1B / RFU, RFX7 / Fold change vs veh, RFX7 / RFU, GTPBP10 / Fold change vs veh, GTPBP10 / RFU, CNEP1R1 / Fold change vs veh, CNEP1R1 / RFU, BIVM-ERCC5 /// ERCC5 / Fold change vs veh, BIVM-ERCC5 /// ERCC5 / RFU, ILF3 / Fold change vs veh, ILF3 / RFU 11762660_at / Fold change /veh 11762660_at / RFU VCAN (11757783_s_at) / Fold change /veh VCAN (11757783_s_at) / RFU DDX43 (11728927_at) / Fold change /veh DDX43 (11728927_at) / RFU KRT8 (11758188_x_at) / Fold change /veh KRT8 (11758188_x_at) / RFU NKD1 (11759106_at) / Fold change /veh NKD1 (11759106_at) / RFU SRD5A1 (11742802_a_at) / Fold change /veh SRD5A1 (11742802_a_at) / RFU TPSAB1 /// TPSB2 (11721975_s_at) / Fold change /veh TPSAB1 /// TPSB2 (11721975_s_at) / RFU GSTM3 (11746129_a_at) / Fold change /veh GSTM3 (11746129_a_at) / RFU IL23R (11737362_x_at) / Fold change /veh IL23R (11737362_x_at) / RFU TMEM51 (11727254_a_at) / Fold change /veh TMEM51 (11727254_a_at) / RFU PIWIL2 (11732686_x_at) / Fold change /veh PIWIL2 (11732686_x_at) / RFU ORM1 (11744905_x_at) / Fold change /veh ORM1 (11744905_x_at) / RFU CCDC152 (11743942_at) / Fold change /veh CCDC152 (11743942_at) / RFU ECM1 (11717891_a_at) / Fold change /veh ECM1 (11717891_a_at) / RFU IL23R (11748794_a_at) / Fold change /veh IL23R (11748794_a_at) / RFU TNFAIP8L3 (11732012_x_at) / Fold change /veh TNFAIP8L3 (11732012_x_at) / RFU MBOAT4 (11741988_at) / Fold change /veh MBOAT4 (11741988_at) / RFU 11764193_at / Fold change /veh 11764193_at / RFU TMEM53 (11763286_at) / Fold change /veh TMEM53 (11763286_at) / RFU MAGEB2 (11727129_at) / Fold change /veh MAGEB2 (11727129_at) / RFU TMEM200A (11744735_a_at) / Fold change /veh TMEM200A (11744735_a_at) / RFU CCDC152 (11751479_a_at) / Fold change /veh CCDC152 (11751479_a_at) / RFU FAM211A (11726209_a_at) / Fold change /veh FAM211A (11726209_a_at) / RFU RGS16 (11746705_a_at) / Fold change /veh RGS16 (11746705_a_at) / RFU VCAN (11755009_s_at) / Fold change /veh VCAN (11755009_s_at) / RFU RHOB (11743442_s_at) / Fold change /veh RHOB (11743442_s_at) / RFU RGS16 (11720943_a_at) / Fold change /veh RGS16 (11720943_a_at) / RFU RGS16 (11720944_at) / Fold change /veh RGS16 (11720944_at) / RFU, VPS4B / Fold change vs veh, VPS4B / RFU, CREB1 / Fold change vs veh, CREB1 / RFU, DNAJC13 / Fold change vs veh, DNAJC13 / RFU, GNAQ / Fold change vs veh, GNAQ / RFU, CDK5R1 / Fold change vs veh, CDK5R1 / RFU, ZRANB3 / Fold change vs veh, ZRANB3 / RFU, CUL4A / Fold change vs veh, CUL4A / RFU, CCNY / Fold change vs veh, CCNY / RFU, UFL1 / Fold change vs veh, UFL1 / RFU, COG3 / Fold change vs veh, COG3 / RFU, DIAPH2 / Fold change vs veh, DIAPH2 / RFU, SKA2 / Fold change vs veh, SKA2 / RFU, AFF3 / Fold change vs veh, AFF3 / RFU, LMF1 / Fold change vs veh, LMF1 / RFU, IPO11 / Fold change vs veh, IPO11 / RFU, DFFB / Fold change vs veh, DFFB / RFU, FOXP1 / Fold change vs veh, FOXP1 / RFU, CARD8 / Fold change vs veh, CARD8 / RFU, STRN3 / Fold change vs veh, STRN3 / RFU, ADK / Fold change vs veh, ADK / RFU, RASSF2 / Fold change vs veh, RASSF2 / RFU, WIPF1 / Fold change vs veh, WIPF1 / RFU, LARP1B / Fold change vs veh, LARP1B / RFU, RASA1 / Fold change vs veh, RASA1 / RFU, RB1 / Fold change vs veh, RB1 / RFU, PPFIA1 / Fold change vs veh, PPFIA1 / RFU, MAT2A / Fold change vs veh, MAT2A / RFU, CCT5 / Fold change vs veh, CCT5 / RFU, WDR92 / Fold change vs veh, WDR92 / RFU, CUX1 / Fold change vs veh, CUX1 / RFU, TTC7A / Fold change vs veh, TTC7A / RFU, TMEM135 / Fold change vs veh, TMEM135 / RFU, DEPTOR / Fold change vs veh, DEPTOR / RFU, CPM / Fold change vs veh, CPM / RFU, DNAJB6 / Fold change vs veh, DNAJB6 / RFU, CACNA2D3 / Fold change vs veh, CACNA2D3 / RFU, DTX4 / Fold change vs veh, DTX4 / RFU, TFCP2 / Fold change vs veh, TFCP2 / RFU, GMCL1 /// GMCL1P1 / Fold change vs veh, GMCL1 /// GMCL1P1 / RFU, AEBP2 / Fold change vs veh, AEBP2 / RFU, SNHG1 /// SNORD22 /// SNORD25 /// SNORD26 /// SNORD27 /// SNORD28 /// SNORD29 /// SNORD31 / Fold change vs veh, SNHG1 /// SNORD22 /// SNORD25 /// SNORD26 /// SNORD27 /// SNORD28 /// SNORD29 /// SNORD31 / Fold change (Aza/veh), C12orf56 (ProbeSet 11735607_a_at) / Fold change (ACY-1035/veh), C12orf56 (ProbeSet 11735607_a_at) / Fold change (Aza/veh), FGFR1OP (ProbeSet 11751329_s_at) / Fold change (ACY-1035/veh), FGFR1OP (ProbeSet 11751329_s_at) / Fold change (Aza/veh), VPS36 (ProbeSet 11739960_a_at) / Fold change (ACY-1035/veh), VPS36 (ProbeSet 11739960_a_at) / RFU SYPL1 (11715823_x_at) / Fold change /veh SYPL1 (11715823_x_at) / RFU IGFBP7 (11715501_s_at) / Fold change /veh IGFBP7 (11715501_s_at) / RFU REEP3 (11722064_at) / Fold change /veh REEP3 (11722064_at) / RFU IGLL1 (11728026_x_at) / Fold change /veh IGLL1 (11728026_x_at): dose or concentration left out as unconfirmed. The format is cell-based, human.

For the compound `Nc1ncn([C@@H]2O[C@H](CO)[C@@H](O)[C@H]2O)c(=O)n1` [azacitidine], the “RFU, BCL10” value is on record as 71.45 RFU.
